# “And” between values parts separate entries of the source, which are not always exact repeats. Equal values may be shown once. Read-outs that look alike come from different tables or passages of the source.
# Legend:
# [1] = tested on: N. gonorrhoeae strain 49226 (ATCC); assay: Frequency of resistance; type: cell-based, Neisseria gonorrhoeae; conditions: selection at 4x and 8x MIC
# Caco-2 permeability = type: in vitro ADME, human; conditions: human
# Experimental: (§1) To evaluate the potential for oral bioavailability, the ability of prioritized compounds to permeate a monolayer of Caco-2 (ATCC HTB-37) intestinal epithelial cells was determined as described. Caco-2 permeability values (Papp) > 1 × 10^−6 cm/sec are predictive of oral bioavailability.
# Caco-2 cells = assay: Caco-2 permeability; type: in vitro ADME, human
# Experimental: as §1
# [2] = Serum protein binding, rat; type: in vitro ADME; conditions: Eurofins; for fraction unbound: rat, serum, read-out: Serum binding (% bound) Rat (converted)
# Experimental: (§2) Serum protein binding was determined using an equilibrium dialysis method as described. The amount of compound in each chamber (buffer and serum) was measured using methods for reverse-phase liquid chromatography/mass spectroscopy methods that were customized for each compound.
# [3] = Serum protein binding, dog; type: in vitro ADME
# Experimental: as §2
# Mycoplasma pneumoniae = assay: MIC, microbroth dilution; type: cell-based
# [4] = tested on: mitochondrial membrane potential (MMP, TMRE signal); assay: Multiplexed cytotoxicity assay (nuclei, ROS, TMRE); type: cell-based, human; conditions: human, primary hepatocytes, 24 h, read-out: MMP inhibition (fold induction)
# Experimental: (§3) Multiplexed cytotoxicity assay — Human primary hepatocytes were grown on collagen I coated optical plates, cultured in hepatocytes culture media in a humidified 5% CO2 atmosphere at 37 °C. Cells were incubated in the presence of MBX-4132 at 10 concentrations starting a 100 µM and serially diluted 3.16-fold for 24 h at 37 °C, incubated for 30 min with multiplexed fluorescent dyes (Hoescht, 6-carboxy-2’,7’-dichlorodihydrofluorescein diazetat, and TMRE) and imaged to allow visualization of nuclei, reactive oxygen species generation, and mitochondrial oxidation. A >3.5-fold induction of ROS was considered consistent with formation of ROS and a >2-fold change in TMRE signal indicated an increase or decrease in mitochondrial membrane potential.
# [5] = tested on: reactive oxygen species (ROS) generation; assay: Multiplexed cytotoxicity assay (nuclei, ROS, TMRE); type: cell-based, human; conditions: human, primary hepatocytes, 24 h
# Experimental: as §3
# [6] = Mitochondrial toxicity assay, glucose vs galactose; type: cell-based; conditions: human, HepG2; for viability at 24 h, 100 µM: Conc. (μM) 1.00E-04; for viability at 24 h, 3 µM: Conc. (μM) 3.00E-06
# Experimental: (§4) Mitochondrial toxicity assay — HepG2 cells (ATCC) were seeded and cultured in media containing either glucose or galactose overnight. Test compounds were added at 8 concentrations ([…] from 100 µM to 30 nM) and incubated with the cells for 24 h. Cell viability was measured by the alamarBlue method. The data in Supplementary Table 7 are inconsistent with MBX-4132 disrupting mitochondrial metabolic processes. Assays were performed at Eurofins Cerep Panlabs.
# HepG2 cells = assay: Mitochondrial toxicity assay, glucose vs galactose; type: cell-based; conditions: for % viability: HepG2, replicates
# Experimental: as §4
# CYP3A = CYP3A (Homo sapiens, UniProt P08684); assay: Cyp inhibition assays 4873, 4872; type: in vitro ADME
# Experimental: (§5) Several in vitro selectivity assays were performed at Eurofins Discovery Services using established methods and controls that behaved as expected (Supplementary Tables 5 and 6). […] For receptor panel profiling, MBX-4132 was evaluated at 10 μM and activity of >50% (agonist or antagonist; note that negative % inhibition indicates agonism) was scored as active.
# Adrenergic α2A = molecular target: T1, Adrenergic α2A (Homo sapiens, UniProt P08913); assay: Receptor Profiling 203630; type: binding
# T1 construct: purchased Eurofins Discovery Services (Panlabs safety panel)
# Experimental: as §5
# Dopamine D1 = molecular target: T2, Dopamine D1 (Homo sapiens, UniProt P21728); assay: Receptor Profiling 219500; type: binding
# T2 construct: purchased Eurofins Discovery Services (Panlabs safety panel)
# Experimental: as §5
# [7] = molecular target: T3, Serotonin (5-hydroxytryptamine) 5-HT1B (Homo sapiens, UniProt P28222); assay: Receptor Profiling 271230; type: binding
# T3 construct: purchased Eurofins Discovery Services (Panlabs safety panel)
# Experimental: as §5
# [8] = molecular target: T4, Serotonin (5-hydroxytryptamine) 5-HT2A (Homo sapiens, UniProt P28223); assay: Receptor Profiling 271650; type: binding
# T4 construct: purchased Eurofins Discovery Services (Panlabs safety panel)
# Experimental: as §5
# Sodium Channel, Site 2 = assay: Receptor Profiling 279510; type: binding, rat; conditions: 10 μM
# Experimental: as §5
# [9] = tested on: N. gonorrhoeae strain H041; assay: In vivo efficacy in the gonorrhea mouse model; conditions: for mouse cfu: individual mice, 2.00E+01 = no CFU/mL recovered, limit of detection
# [10] = HepG2 cells, Galactcose, read-out: Mean % viability
# [11] = HepG2 cells, Galactcose, replicates, read-out: % viability
# [12] = HepG2 cells, Glucose, read-out: Mean % viability
# [13] = HepG2 cells, Glucose, replicates, read-out: % viability
# CYP3A, sequence (P08684 2-503): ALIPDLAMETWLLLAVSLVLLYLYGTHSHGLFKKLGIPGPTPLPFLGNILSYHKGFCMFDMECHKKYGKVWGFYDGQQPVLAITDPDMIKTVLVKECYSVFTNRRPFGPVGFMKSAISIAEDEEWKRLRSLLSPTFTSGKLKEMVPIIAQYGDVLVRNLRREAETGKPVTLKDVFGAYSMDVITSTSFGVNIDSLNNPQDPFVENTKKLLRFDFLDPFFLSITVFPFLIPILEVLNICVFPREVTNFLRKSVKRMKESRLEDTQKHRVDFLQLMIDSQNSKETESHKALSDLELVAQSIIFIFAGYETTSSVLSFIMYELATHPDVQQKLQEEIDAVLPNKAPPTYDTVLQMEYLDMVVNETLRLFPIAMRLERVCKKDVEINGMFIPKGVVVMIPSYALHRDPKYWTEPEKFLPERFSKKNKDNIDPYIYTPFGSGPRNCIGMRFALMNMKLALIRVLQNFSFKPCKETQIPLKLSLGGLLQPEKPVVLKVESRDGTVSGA
# T3 sequence (P28222 whole entry): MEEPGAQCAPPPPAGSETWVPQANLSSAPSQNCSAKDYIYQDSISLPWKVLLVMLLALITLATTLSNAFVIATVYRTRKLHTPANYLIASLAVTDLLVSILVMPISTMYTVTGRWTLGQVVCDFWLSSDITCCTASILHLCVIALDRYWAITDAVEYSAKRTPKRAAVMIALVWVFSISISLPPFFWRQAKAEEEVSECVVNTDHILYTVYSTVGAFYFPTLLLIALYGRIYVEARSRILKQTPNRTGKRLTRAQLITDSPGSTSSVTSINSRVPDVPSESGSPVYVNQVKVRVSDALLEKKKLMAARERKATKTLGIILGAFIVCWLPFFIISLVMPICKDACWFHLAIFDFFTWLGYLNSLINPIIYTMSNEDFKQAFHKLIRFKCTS
# T4 sequence (P28223 whole entry): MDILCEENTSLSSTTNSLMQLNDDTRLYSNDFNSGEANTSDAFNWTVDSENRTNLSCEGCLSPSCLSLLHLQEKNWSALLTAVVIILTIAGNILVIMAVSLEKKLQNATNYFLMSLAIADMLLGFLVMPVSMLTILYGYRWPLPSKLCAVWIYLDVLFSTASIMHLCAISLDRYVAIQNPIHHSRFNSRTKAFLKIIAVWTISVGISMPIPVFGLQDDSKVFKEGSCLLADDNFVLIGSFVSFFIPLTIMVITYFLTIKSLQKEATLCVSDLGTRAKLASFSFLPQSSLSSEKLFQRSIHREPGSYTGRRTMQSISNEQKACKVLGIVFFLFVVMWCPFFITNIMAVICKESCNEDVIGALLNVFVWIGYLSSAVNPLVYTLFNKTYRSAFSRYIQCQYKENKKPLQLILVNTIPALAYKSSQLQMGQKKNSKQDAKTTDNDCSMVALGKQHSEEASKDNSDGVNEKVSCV
# T2 sequence (P21728 whole entry): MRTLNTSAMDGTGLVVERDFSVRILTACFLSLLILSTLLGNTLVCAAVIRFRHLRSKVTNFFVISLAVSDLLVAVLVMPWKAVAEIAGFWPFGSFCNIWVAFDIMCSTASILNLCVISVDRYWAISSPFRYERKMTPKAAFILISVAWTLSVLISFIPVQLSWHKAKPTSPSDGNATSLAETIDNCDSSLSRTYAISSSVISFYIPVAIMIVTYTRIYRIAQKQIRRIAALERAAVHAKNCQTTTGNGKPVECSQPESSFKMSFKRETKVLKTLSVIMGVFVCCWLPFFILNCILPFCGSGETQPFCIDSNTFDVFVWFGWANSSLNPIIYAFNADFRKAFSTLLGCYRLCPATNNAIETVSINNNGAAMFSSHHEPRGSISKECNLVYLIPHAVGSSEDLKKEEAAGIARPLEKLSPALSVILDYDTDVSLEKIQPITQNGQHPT
# T1 sequence (P08913 whole entry): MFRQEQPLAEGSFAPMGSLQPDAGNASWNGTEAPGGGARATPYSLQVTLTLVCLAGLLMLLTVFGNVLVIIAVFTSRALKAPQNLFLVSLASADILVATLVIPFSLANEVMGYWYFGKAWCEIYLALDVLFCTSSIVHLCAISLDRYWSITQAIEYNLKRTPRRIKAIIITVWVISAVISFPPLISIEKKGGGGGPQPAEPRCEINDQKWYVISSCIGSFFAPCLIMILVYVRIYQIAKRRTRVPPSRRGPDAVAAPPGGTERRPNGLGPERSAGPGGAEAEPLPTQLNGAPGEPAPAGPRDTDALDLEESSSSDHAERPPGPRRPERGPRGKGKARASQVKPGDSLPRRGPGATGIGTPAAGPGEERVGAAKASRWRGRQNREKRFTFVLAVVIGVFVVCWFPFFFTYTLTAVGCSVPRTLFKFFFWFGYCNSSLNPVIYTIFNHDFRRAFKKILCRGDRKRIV
compound,measurement,setting,value
O=C(Nc1nnc(-c2ccc(F)cc2)o1)N1CCc2ccccc2C1 [MBX-4132],frequency of spontaneous mutants resistant,[1],< 1.2 × 10^−9
same,Papp A→B,"Caco-2 permeability; Caco-2, A to B, read-out: Caco-2 Papp (A to B)",11.1 ×10⁻⁶ cm/s
same,Papp A→B,"Caco-2 permeability; Caco-2, A→B, Average Value, Eurofins, read-out: Caco-2 A→B",11.1 ×10⁻⁶ cm/s
same,Papp A→B,"Caco-2 permeability; Caco-2, A→B, Replicate 1/2, Eurofins, read-out: Caco-2 A→B",12.4 ×10⁻⁶ cm/s
same,Papp A→B,"Caco-2 permeability; Caco-2, A→B, Reported value, Eurofins, read-out: Caco-2 A→B",11.1 ×10⁻⁶ cm/s
same,Papp B→A,"Caco-2 permeability; Caco-2, B to A, read-out: Caco-2 Papp B to A",7.3 ×10⁻⁶ cm/s
same,Papp B→A,"Caco-2 permeability; Caco-2, B→A, Average Value, Eurofins, read-out: Caco-2 B→A",7.3 ×10⁻⁶ cm/s
same,Papp B→A,"Caco-2 permeability; Caco-2, B→A, Replicate 1/2, Eurofins, read-out: Caco-2 B→A",6.33 ×10⁻⁶ cm/s
same,Papp B→A,"Caco-2 permeability; Caco-2, B→A, Reported value, Eurofins, read-out: Caco-2 B→A",7.3 ×10⁻⁶ cm/s
same,Caco-2 Papp (A to B),Caco-2 cells; A to B,11 x 10^-6 cms^-1
same,Caco-2 (Papp; x 10-6 cms-1) A→B,"Caco-2 cells; A→B, Replicate 1/2, Eurofins",9.9 x 10-6 cms-1
same,Caco-2 (Papp; x 10-6 cms-1) B→A,"Caco-2 cells; B→A, Replicate 1/2, Eurofins",8.19 x 10-6 cms-1
same,Serum binding (% bound) Rat,[2]; Replicate 1/2,99.9% and 85.2%
same,fraction unbound,[2]; Reported value,0.07
same,fraction unbound,[2]; Average Value,0.074
same,fraction unbound,"[3]; Average Value, Eurofins, read-out: Serum binding (% bound) Dog (converted)",0.048
same,fraction unbound,"[3]; Replicate 1/2, Eurofins, read-out: Serum binding (% bound) Dog (converted)",0.095 and 0.002
same,fraction unbound,"[3]; Reported value, Eurofins, read-out: Serum binding (% bound) Dog (converted)",0.048
same,fraction unbound,[3]; read-out: Serum Binding (% bound) Dog (converted),0.048
same,MIC,"Mycoplasma pneumoniae; Mycoplasma pneumoniae ATCC 15531, replicates",≥34 µg/mL
same,MIC,"Mycoplasma pneumoniae; Mycoplasma, ATCC15531, strain ATCC 15531, read-out: MIC",≥ 34 µg/mL
same,"fold induction at 24 h, 1 μM",[4]; 1.00E+00 μM,0.9
same,"fold induction at 24 h, 10 μM",[4]; 1.00E+01 μM,1.1
same,"fold induction at 24 h, 0.1 μM",[4]; 1.00E-01 μM,1.2
same,"fold induction at 24 h, 0.0101 μM",[4]; 1.01E-02 μM,1
same,"fold induction at 24 h, 31.6 μM",[4]; 3.16E+01 μM,1.1
same,"fold induction at 24 h, 3.17 μM",[4]; 3.17E+00 μM,1
same,"fold induction at 24 h, 0.317 μM",[4]; 3.17E-01 μM,0.9
same,"fold induction at 24 h, 0.0318 μM",[4]; 3.18E-02 μM,0.9
same,"fold induction at 24 h, 0.00318 μM",[4]; 3.18E-03 μM,1
same,"fold induction at 24 h, 1 μM",[5]; 1.00E+00 μM,1.2
same,"fold induction at 24 h, 0.1 μM",[5]; 1.00E-01 μM,1.4
same,"fold induction at 24 h, 0.0101 μM",[5]; 1.01E-02 μM,1.4
same,"fold induction at 24 h, 3.17 μM",[5]; 3.17E+00 μM,1.1
same,"fold induction at 24 h, 0.317 μM",[5]; 3.17E-01 μM,1.2
same,"fold induction at 24 h, 0.0318 μM",[5]; 3.18E-02 μM,0.9
same,"viability at 24 h, 1e-05 μM","[6]; Glucose, Conc. (μM) 1.00E-05, replicates",108%
same,"viability at 24 h, 100 µM",[6]; [10],64%
same,"viability at 24 h, 100 µM",[6]; [11],65.3%
same,"viability at 24 h, 10 µM","[6]; HepG2 cells, Galactcose, Conc. (μM) 1.00E-05",95.4%
same,"viability at 24 h, 3 µM",[6]; [10],94.1%
same,"viability at 24 h, 3 µM",[6]; [11],93.9%
same,"viability at 24 h, 30 µM","[6]; HepG2 cells, Galactose, Conc. (μM) 3.00E-05, 24 h",96.8%
same,"viability at 24 h, 100 µM",[6]; [12],81.9%
same,"viability at 24 h, 100 µM",[6]; [13],78.3%
same,"viability at 24 h, 10 µM","[6]; HepG2 cells, Glucose, Conc. (μM) 1.00E-05",108%
same,"viability at 24 h, 3 µM",[6]; [12],110%
same,"viability at 24 h, 3 µM",[6]; [13],116%
same,% viability,"HepG2 cells; Galactcose, Conc. (μM) 1.00E-04",62.7%
same,% viability,"HepG2 cells; Galactcose, Conc. (μM) 3.00E-05",99.1%
same,% viability,"HepG2 cells; Galactcose, Conc. (μM) 3.00E-06",94.2%
same,% viability,"HepG2 cells; Glucose, Conc. (μM) 1.00E-04",85.6%
same,% viability,"HepG2 cells; Glucose, Conc. (μM) 1.00E-05",107.5%
same,% viability,"HepG2 cells; Glucose, Conc. (μM) 3.00E-05",106.5%
same,% viability,"HepG2 cells; Glucose, Conc. (μM) 3.00E-06",103.0%
same,differential toxicity glucose vs galactose (in words),HepG2 cells; HepG2 cells,did not induce differential toxicity
same,pIC50 (µM) reported,"CYP3A; CYP3A midazolam, catalog reference 4873",No activity
same,IC50,"CYP3A; human, probe testosterone",> 100 µM
same,inhibition at 10 µM,Adrenergic α2A,35%
same,inhibition at 10 µM,Dopamine D1,26%
same,inhibition at 10 µM,[7],21%
same,inhibition at 10 µM,[8],18%
same,% inhibition,"Sodium Channel, Site 2",21%
same,mouse cfu,"[9]; Day 5, MBX-4132 10 MPK, 10 mg/kg",2.00E+01 CFU/mL (14×) and 4.20E+02 CFU/mL and 2.61E+03 CFU/mL and 2.38E+03 CFU/mL and 3.50E+05 CFU/mL and 1.00E+06 CFU/mL and 2.60E+02 CFU/mL
same,mouse cfu,"[9]; Day 6, MBX-4132 10 MPK, 10 mg/kg",2.00E+01 CFU/mL (16×) and 1.46E+03 CFU/mL and 2.08E+04 CFU/mL and 3.12E+05 CFU/mL and 7.20E+02 CFU/mL
same,mouse cfu,"[9]; Day 7, MBX-4132 10 MPK, 10 mg/kg",2.00E+01 CFU/mL (18×) and 1.01E+04 CFU/mL and 1.16E+04 CFU/mL
same,mouse cfu,"[9]; Day 8, MBX-4132 10 MPK, 10 mg/kg",2.00E+01 CFU/mL (18×) and 2.20E+02 CFU/mL and 7.00E+02 CFU/mL
same,mouse cfu,"[9]; Day -1, MBX-4132 10 MPK, 10 mg/kg",2.16E+06 CFU/mL and 4.97E+06 CFU/mL and 1.86E+05 CFU/mL and 1.04E+06 CFU/mL and 6.26E+06 CFU/mL and 2.02E+05 CFU/mL and 3.50E+04 CFU/mL and 5.46E+03 CFU/mL and 1.66E+05 CFU/mL and 6.46E+05 CFU/mL and 2.23E+05 CFU/mL and 2.90E+05 CFU/mL and 2.17E+05 CFU/mL and 6.58E+03 CFU/mL and 2.34E+06 CFU/mL and 3.20E+02 CFU/mL and 3.63E+06 CFU/mL and 4.88E+05 CFU/mL and 3.45E+06 CFU/mL and 2.43E+06 CFU/mL
same,mice cleared per day: cleared flag,"[9]; MBX-4132 10 MPK, individual mice 1-20, 1 = cleared on the day, 0 = not cleared, 10 mg/kg",1 and 0
same,Day (mice cleared per day: day on which the mouse was cleared),"[9]; MBX-4132 10 MPK, individual mice 1-20, Day 8 with flag 0 = not cleared, 10 mg/kg",3 and 8 and 6 and 5 and 1 and 4 and 2
same,mice completely cleared of infection,"[9]; single oral dose 10 mg/kg, by 6 days, N. gonorrhoeae H041",80%
